Legend:
Format in all cases: in vivo
[1] = test system: green foxtail (Setaria viridis (L.) P. Beauv.); assay: Test Example 3: herbicidal effect by application to upland field (foliage treatment); conditions: foliage treatment, 1,000 g active ingredient per 1 hectare, 14th day after application, greenhouse
Method in brief: (§1)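 Post-emergence spray at 1,000 g AI/ha of wettable powder in water (1,000 L/ha), onto seedlings grown 2 weeks in greenhouse field-soil pots. Graded day 14.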

[2] = test system: velvetleaf (Abutilon theophrasti medicus); assay: as above; conditions: foliage treatment, 1,000 g active ingredient per 1 hectare, 14th day after application, greenhouse
Method in brief: as §1

[3] = test system: barnyardgrass (Echinochloa crus-galli (L.) P. Beauv. var. crus-galli); assay: as above; conditions: foliage treatment, 1,000 g active ingredient per 1 hectare, 14th day after application, greenhouse
Method in brief: as §1

[4] = test system: slender amaranth (Amaranthus viridis L.); assay: as above; conditions: foliage treatment, 1,000 g active ingredient per 1 hectare, 14th day after application, greenhouse
Method in brief: as §1

[5] = test system: early watergrass (Echinochloa oryzicola Vasing); assay: Test Example 1: herbicidal effect by soil application to paddy field; conditions: paddy field soil application; active ingredient 1,000 g per 1 hectare; wettable powder added dropwise to water surface the day after sowing; examined on the 21st day after application
Method in brief: (§2)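 Plants were sown in flooded (3 cm) paddy soil and evaluated for herbicidal effect 21 days after soil application in a greenhouse.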

[6] = test system: Japanese bulrush (Scirpus juncoides Roxb.); assay: as above; conditions: paddy field soil application; active ingredient 1,000 g per 1 hectare; wettable powder added dropwise to water surface the day after sowing; examined on the 21st day after application
Method in brief: as §2

[7] = test system: heartshape false pickerelweed (Monochoria vaginalis (Burm.f.) C.Presl); assay: as above; conditions: paddy field soil application; active ingredient 1,000 g per 1 hectare; wettable powder added dropwise to water surface the day after sowing; examined on the 21st day after application
Method in brief: as §2

SMILES	herbicidal effect, Green Foxtail [1]	herbicidal effect, Velvetleaf [2]	herbicidal effect, Barnyardgrass [3]	herbicidal effect, Slender Amaranth [4]	herbicidal effect, Echinochloa oryzicola Vasing [5]	herbicidal effect, Scirpus juncoides Roxb. [6]	herbicidal effect, Monochoria vaginalis (Burm. f.) C. Presl [7]
CCCS(=O)(=O)Oc1c(C(=O)c2ccc(C(F)(F)F)n(-c3ccc4c(c3)OCO4)c2=O)cnn1C(C)C [IV-100]	5 (90% or more of herbicidal effect and crop phytotoxicity)	5 (90% or more of herbicidal effect and crop phytotoxicity)	5 (90% or more of herbicidal effect and crop phytotoxicity)	4 (70 to less than 90% of herbicidal effect and crop phytotoxicity)	5 (90% or more of herbicidal effect and crop phytotoxicity)	5 (90% or more of herbicidal effect and crop phytotoxicity)	5 (90% or more of herbicidal effect and crop phytotoxicity)
Cn1ncc(C(=O)c2ccc(C(F)(F)F)n(Cc3c(C(F)(F)F)nn(C)c3OC(F)F)c2=O)c1O [IV-108]	4 (70 to less than 90% of herbicidal effect and crop phytotoxicity)	5 (90% or more of herbicidal effect and crop phytotoxicity)	4 (70 to less than 90% of herbicidal effect and crop phytotoxicity)	4 (70 to less than 90% of herbicidal effect and crop phytotoxicity)	5 (90% or more of herbicidal effect and crop phytotoxicity)	5 (90% or more of herbicidal effect and crop phytotoxicity)	4 (70 to less than 90% of herbicidal effect and crop phytotoxicity)
Cn1ncc(C(=O)c2ccc(C(F)(F)F)n(CC3CCCO3)c2=O)c1OCc1c(F)cccc1F (stereo not drawn) [IV-136]	4 (70 to less than 90% of herbicidal effect and crop phytotoxicity)	4 (70 to less than 90% of herbicidal effect and crop phytotoxicity)	4 (70 to less than 90% of herbicidal effect and crop phytotoxicity)	5 (90% or more of herbicidal effect and crop phytotoxicity)	5 (90% or more of herbicidal effect and crop phytotoxicity)	5 (90% or more of herbicidal effect and crop phytotoxicity)	5 (90% or more of herbicidal effect and crop phytotoxicity)
Cc1ccc(C(=O)COc2c(C(=O)c3ccc(C(F)(F)F)n(CC4CCCO4)c3=O)cnn2C)cc1 (stereo not drawn) [IV-139]	4 (70 to less than 90% of herbicidal effect and crop phytotoxicity)	5 (90% or more of herbicidal effect and crop phytotoxicity)	5 (90% or more of herbicidal effect and crop phytotoxicity)	5 (90% or more of herbicidal effect and crop phytotoxicity)	5 (90% or more of herbicidal effect and crop phytotoxicity)	5 (90% or more of herbicidal effect and crop phytotoxicity)	5 (90% or more of herbicidal effect and crop phytotoxicity)
Cn1ncc(C(=O)c2ccc(C(F)(F)F)n(CC3CCCO3)c2=O)c1OS(=O)(=O)c1ccc([N+](=O)[O-])cc1 (stereo not drawn) [IV-142]	5 (90% or more of herbicidal effect and crop phytotoxicity)	5 (90% or more of herbicidal effect and crop phytotoxicity)	5 (90% or more of herbicidal effect and crop phytotoxicity)	5 (90% or more of herbicidal effect and crop phytotoxicity)	5 (90% or more of herbicidal effect and crop phytotoxicity)	5 (90% or more of herbicidal effect and crop phytotoxicity)	5 (90% or more of herbicidal effect and crop phytotoxicity)
C=C(C)Cn1c(C(F)(F)F)ccc(C(=O)c2cnn(C)c2OC(C)=O)c1=O [IV-180]	4 (70 to less than 90% of herbicidal effect and crop phytotoxicity)	5 (90% or more of herbicidal effect and crop phytotoxicity)	5 (90% or more of herbicidal effect and crop phytotoxicity)	5 (90% or more of herbicidal effect and crop phytotoxicity)	5 (90% or more of herbicidal effect and crop phytotoxicity)	5 (90% or more of herbicidal effect and crop phytotoxicity)	5 (90% or more of herbicidal effect and crop phytotoxicity)
COc1ccccc1COc1c(C(=O)c2ccc(C(F)(F)F)n(C)c2=O)cnn1C [IV-193]	4 (70 to less than 90% of herbicidal effect and crop phytotoxicity)	5 (90% or more of herbicidal effect and crop phytotoxicity)	3 (50 to less than 70% of herbicidal effect and crop phytotoxicity)	5 (90% or more of herbicidal effect and crop phytotoxicity)	5 (90% or more of herbicidal effect and crop phytotoxicity)	5 (90% or more of herbicidal effect and crop phytotoxicity)	5 (90% or more of herbicidal effect and crop phytotoxicity)
CCn1ncc(C(=O)c2ccc(C(F)(F)F)n(C)c2=O)c1OC(C)=O [IV-208]	4 (70 to less than 90% of herbicidal effect and crop phytotoxicity)	5 (90% or more of herbicidal effect and crop phytotoxicity)	5 (90% or more of herbicidal effect and crop phytotoxicity)	5 (90% or more of herbicidal effect and crop phytotoxicity)	5 (90% or more of herbicidal effect and crop phytotoxicity)	5 (90% or more of herbicidal effect and crop phytotoxicity)	5 (90% or more of herbicidal effect and crop phytotoxicity)
CC(=O)Oc1c(C(=O)c2ccc(C(F)(F)F)n(C)c2=O)cnn1C(C)C [IV-220]	3 (50 to less than 70% of herbicidal effect and crop phytotoxicity)	5 (90% or more of herbicidal effect and crop phytotoxicity)	4 (70 to less than 90% of herbicidal effect and crop phytotoxicity)	5 (90% or more of herbicidal effect and crop phytotoxicity)	5 (90% or more of herbicidal effect and crop phytotoxicity)	5 (90% or more of herbicidal effect and crop phytotoxicity)	5 (90% or more of herbicidal effect and crop phytotoxicity)
